Reference: US4401604A, “Process for preparing thiosulfenamide derivatives of N-phosphonomethylglycine triesters” (Monsanto Company, priority 1981, dated 1983)

Assays:
Assay type in all cases: in vivo
[1] = system: Sugar Beet; assay: Post-emergence herbicidal activity, greenhouse; details: Table II
In short: (§1)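 2–3-week-old plants, post-emergence atomizer spray, ~0.4% emulsifier; candidate from 1.0% stock in acetone, THF or water. Greenhouse hold; injury vs control at ~2/4 WAT.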

[2] = system: Hemp Sesbania; assay: Post-emergence herbicidal activity, greenhouse; details: Table II
In short: as §1

[3] = system: Wheat; assay: Post-emergence herbicidal activity, greenhouse; details: Table II
In short: as §1

[4] = system: Downy Brome; assay: Post-emergence herbicidal activity, greenhouse
In short: as §1

[5] = system: Yellow Nutsedge; assay: Post-emergence herbicidal activity, greenhouse; details: Table I, 4 WAT
In short: as §1

[6] = system: Cocklebur; assay: Post-emergence herbicidal activity, greenhouse
In short: as §1

[7] = system: Canada Thistle; assay: Post-emergence herbicidal activity, greenhouse; details: Table I, 4 WAT
In short: as §1

[8] = system: Barnyardgrass; assay: Post-emergence herbicidal activity, greenhouse
In short: as §1

[9] = system: Rice; assay: Post-emergence herbicidal activity, greenhouse; details: Table II
In short: as §1

[10] = system: Smartweed; assay: Post-emergence herbicidal activity, greenhouse
In short: as §1

[11] = system: Lambsquarters; assay: Post-emergence herbicidal activity, greenhouse
In short: as §1

[12] = system: Downy Brome; assay: Pre-emergent herbicidal activity; details: Table III; 11.2 kg/h; 2 WAT
In short: (§2)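 Emergence counts versus untreated controls, taken after approximately two weeks on a wet sand bench, give an index of average percent control per species. The active ingredient, at a known amount, is blended into the soil that covers seeds pressed onto compacted top soil; watering occurs through the pan bottoms.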

[13] = system: Morningglory; assay: Pre-emergent herbicidal activity; details: Table III; 11.2 kg/h; 2 WAT
In short: as §2

[14] = system: Yellow Nutsedge; assay: Pre-emergent herbicidal activity; details: Table III; 11.2 kg/h; 2 WAT
In short: as §2

[15] = system: Cocklebur; assay: Pre-emergent herbicidal activity; details: Table III; 11.2 kg/h; 2 WAT
In short: as §2

[16] = system: Canada Thistle; assay: Pre-emergent herbicidal activity; details: Table III; 11.2 kg/h; 2 WAT
In short: as §2

[17] = system: Quackgrass; assay: Pre-emergent herbicidal activity; details: Table III; 11.2 kg/h; 2 WAT
In short: as §2

[18] = system: Barnyardgrass; assay: Pre-emergent herbicidal activity; details: Table III; 11.2 kg/h; 2 WAT
In short: as §2

[19] = system: Johnsongrass; assay: Pre-emergent herbicidal activity; details: Table III; 11.2 kg/h; 2 WAT
In short: as §2

[20] = system: Smartweed; assay: Pre-emergent herbicidal activity; details: Table III; 11.2 kg/h; 2 WAT
In short: as §2

[21] = system: Velvetleaf; assay: Pre-emergent herbicidal activity; details: Table III; 11.2 kg/h; 2 WAT
In short: as §2

[22] = system: Lambsquarters; assay: Pre-emergent herbicidal activity; details: Table III; 11.2 kg/h; 2 WAT
In short: as §2

Compound: COC(=O)CN(CP(=O)(Oc1ccccc1)Oc1ccccc1)SSC(C)C [I, Glycine, N-[(diphenoxyphosphinyl)methyl]-N-[(1-methylethyl)dithio]-, methyl ester]
- post-emergence herbicidal activity index ([1]; 0.056 kg/h, 2 WAT): 0 (0- 24% control)
- post-emergence herbicidal activity index ([1]; 0.28 kg/h, 2 WAT): 0 (0- 24% control)
- post-emergence herbicidal activity index ([1]; 1.12 kg/h, 4 WAT): 2 (50-74% control)
- post-emergence herbicidal activity index ([1]; 5.6 kg/h, 4 WAT): 4 (100% control)
- post-emergence herbicidal activity index ([1]; 11.2 kg/h, 4 WAT): 3 (75-99% control)
- post-emergence herbicidal activity index ([2]; 0.056 kg/h, 2 WAT): 0 (0- 24% control)
- post-emergence herbicidal activity index ([2]; 0.28 kg/h, 2 WAT): 0 (0- 24% control)
- post-emergence herbicidal activity index ([2]; 1.12 kg/h, 4 WAT): 1 (25-49% control)
- post-emergence herbicidal activity index ([2]; 5.6 kg/h, 4 WAT): 4 (100% control)
- post-emergence herbicidal activity index ([2]; 11.2 kg/h, 4 WAT): 0 (0- 24% control)
- post-emergence herbicidal activity index ([3]; 0.056 kg/h, 2 WAT): 0 (0- 24% control)
- post-emergence herbicidal activity index ([3]; 0.28 kg/h, 2 WAT): 0 (0- 24% control)
- post-emergence herbicidal activity index ([3]; 1.12 kg/h, 4 WAT): 1 (25-49% control)
- post-emergence herbicidal activity index ([3]; 5.6 kg/h, 4 WAT): 3 (75-99% control)
- post-emergence herbicidal activity index ([3]; 11.2 kg/h, 4 WAT): 0 (0- 24% control)
- post-emergence herbicidal activity index ([4]; Table I, 5.6 kg/h, 4 WAT): 3 (75-99% control)
- post-emergence herbicidal activity index ([4]; Table I, 11.2 kg/h, 4 WAT): 3 (75-99% control)
- post-emergence herbicidal activity index ([4]; Table II, 0.056 kg/h, 2 WAT): 0 (0- 24% control)
- post-emergence herbicidal activity index ([4]; Table II, 0.28 kg/h, 2 WAT): 0 (0- 24% control)
- post-emergence herbicidal activity index ([4]; Table II, 1.12 kg/h, 4 WAT): 1 (25-49% control)
- post-emergence herbicidal activity index ([4]; Table II, 5.6 kg/h, 4 WAT): 2 (50-74% control)
- post-emergence herbicidal activity index ([4]; Table II, 11.2 kg/h, 4 WAT): 2 (50-74% control)
- post-emergence herbicidal activity index ([5]; 5.6 kg/h): 3 (75-99% control)
- post-emergence herbicidal activity index ([5]; 11.2 kg/h): 3 (75-99% control)
- post-emergence herbicidal activity index ([6]; Table I, 5.6 kg/h, 4 WAT): 4 (100% control)
- post-emergence herbicidal activity index ([6]; Table I, 11.2 kg/h, 4 WAT): 4 (100% control)
- post-emergence herbicidal activity index ([6]; Table II, 0.056 kg/h, 2 WAT): 0 (0- 24% control)
- post-emergence herbicidal activity index ([6]; Table II, 0.28 kg/h, 2 WAT): 0 (0- 24% control)
- post-emergence herbicidal activity index ([6]; Table II, 1.12 kg/h, 4 WAT): 2 (50-74% control)
- post-emergence herbicidal activity index ([6]; Table II, 5.6 kg/h, 4 WAT): 3 (75-99% control)
- post-emergence herbicidal activity index ([6]; Table II, 11.2 kg/h, 4 WAT): 0 (0- 24% control)
- post-emergence herbicidal activity index ([7]; 5.6 kg/h): 2 (50-74% control)
- post-emergence herbicidal activity index ([7]; 11.2 kg/h): 3 (75-99% control)
- post-emergence herbicidal activity index ([8]; Table I, 5.6 kg/h, 4 WAT): 4 (100% control)
- post-emergence herbicidal activity index ([8]; Table I, 11.2 kg/h, 4 WAT): 4 (100% control)
- post-emergence herbicidal activity index ([8]; Table II, 0.056 kg/h, 2 WAT): 0 (0- 24% control)
- post-emergence herbicidal activity index ([8]; Table II, 0.28 kg/h, 2 WAT): 1 (25-49% control)
- post-emergence herbicidal activity index ([8]; Table II, 1.12 kg/h, 4 WAT): 2 (50-74% control)
- post-emergence herbicidal activity index ([8]; Table II, 5.6 kg/h, 4 WAT): 4 (100% control)
- post-emergence herbicidal activity index ([8]; Table II, 11.2 kg/h, 4 WAT): 3 (75-99% control)
- post-emergence herbicidal activity index ([9]; 0.056 kg/h, 2 WAT): 0 (0- 24% control)
- post-emergence herbicidal activity index ([9]; 0.28 kg/h, 2 WAT): 0 (0- 24% control)
- post-emergence herbicidal activity index ([9]; 1.12 kg/h, 4 WAT): 0 (0- 24% control)
- post-emergence herbicidal activity index ([9]; 5.6 kg/h, 4 WAT): 3 (75-99% control)
- post-emergence herbicidal activity index ([9]; 11.2 kg/h, 4 WAT): 3 (75-99% control)
- post-emergence herbicidal activity index ([10]; Table I, 5.6 kg/h, 4 WAT): 4 (100% control)
- post-emergence herbicidal activity index ([10]; Table I, 11.2 kg/h, 4 WAT): 4 (100% control)
- post-emergence herbicidal activity index ([10]; Table II, 0.056 kg/h, 2 WAT): 0 (0- 24% control)
- post-emergence herbicidal activity index ([10]; Table II, 0.28 kg/h, 2 WAT): 0 (0- 24% control)
- post-emergence herbicidal activity index ([10]; Table II, 1.12 kg/h, 4 WAT): 3 (75-99% control)
- post-emergence herbicidal activity index ([10]; Table II, 5.6 kg/h, 4 WAT): 4 (100% control)
- post-emergence herbicidal activity index ([10]; Table II, 11.2 kg/h, 4 WAT): 3 (75-99% control)
- post-emergence herbicidal activity index ([11]; Table I, 5.6 kg/h, 4 WAT): 3 (75-99% control)
- post-emergence herbicidal activity index ([11]; Table I, 11.2 kg/h, 4 WAT): 4 (100% control)
- post-emergence herbicidal activity index ([11]; Table II, 0.056 kg/h, 2 WAT): 0 (0- 24% control)
- post-emergence herbicidal activity index ([11]; Table II, 0.28 kg/h, 2 WAT): 0 (0- 24% control)
- post-emergence herbicidal activity index ([11]; Table II, 1.12 kg/h, 4 WAT): 3 (75-99% control)
- post-emergence herbicidal activity index ([11]; Table II, 5.6 kg/h, 4 WAT): 4 (100% control)
- post-emergence herbicidal activity index ([11]; Table II, 11.2 kg/h, 4 WAT): 3 (75-99% control)
- pre-emergent herbicidal activity index [12]: 2 (50-74% control)
- pre-emergent herbicidal activity index [13]: 1 (25-49% control)
- pre-emergent herbicidal activity index [14]: 3 (75-100% control)
- pre-emergent herbicidal activity index [15]: 1 (25-49% control)
- pre-emergent herbicidal activity index [16]: 3 (75-100% control)
- pre-emergent herbicidal activity index [17]: 3 (75-100% control)
- pre-emergent herbicidal activity index [18]: 2 (50-74% control)
- pre-emergent herbicidal activity index [19]: 0 (0-24% control)
- pre-emergent herbicidal activity index [20]: 2 (50-74% control)
- pre-emergent herbicidal activity index [21]: 0 (0-24% control)
- pre-emergent herbicidal activity index [22]: 3 (75-100% control)
